System: B10.Br mouse tailskin grafted on male C57BL/10 mice
Assay: Skin graft rejection time (transplantation and evaluation of graft rejection)
Type: in vivo
Details: i.p. from day of grafting until rejection, Example 2 30 mpk/day q.d., Example 3 10 mpk/day q.d.; for Skin Graft Rejection Time, Ex. #1 Rejection: experiment #1; for Skin Graft Rejection Time, Ex. #3 Rejection: experiment #3
Source text: Transplantation and Evaluation of Graft Resection
The method of skin grafting used has been previously described [D. Steinmuller, Skin Grafting. Surgical Techniques in Immunology, Methods Enzymol. […] Briefly, a tailskin from an 8–12 week old male B10.Br mouse was removed and stored in cold saline. Male C57BL/10 mice were anesthetized, and their backs were shaved. The backs were scrubbed with alcohol, and a 1 cm^2 piece of skin was removed. A similar size piece of skin was cut from the tailskin of the B10.Br mouse and placed in the excised area on the C57BL/10 animal's back. A petroleum jelly coated bandage was placed over the graft and held in place by a single surgical staple. Compounds were prepared as a suspension in 0.5% methylcellulose (Sigma, St. Louis, Mo.), and 0.025% Tween® 20 (Sigma). The compounds were administered by i.p. injection in a volume of 0.1 ml beginning on the day of skin grafting and continuing until transplant rejection. […] Compounds were administered alone or as combinations of a COX-2 and 5-LO inhibitor. Bandages were left in place until 8 days post grafting. At that time they were removed, and the grafts were observed daily or signs of rejection. Rejection was determined by complete blackening or scabbing of the grafted skin.

Structure (SMILES) | Skin Graft Rejection Time, Ex. #1 Rejection | Skin Graft Rejection Time, Ex. #3 Rejection
COc1ccc(-c2cc(C(F)F)nn2-c2ccc(S(N)(=O)=O)cc2)cc1F [Example 2, 4-[5-(3-Fluoro-4-methoxyphenyl)-3-(difluoromethyl)-1H-pyrazol-1-yl]benzenesulfonamide] | 15.7 days | 17.3 days
CC(C#Cc1ccc(Oc2ccc(F)cc2)o1)N(O)C(N)=O (stereo not shown) [Example 3, N′-[3-[5-(4-Fluorophenoxy)furyl-2-yl]-1-methyl-2-propynyl]-N′-hydroxyurea] | 15.0 days | 17.0 days

Source: patent US7132441B2, “Immunosuppressive effects of administration of a cyclooxygenase-2 inhibitor and a 5-lipoxygenase inhibitor” (G.D. Searle & Co., priority 1996, dated 2006)
